In data set [1] the test system is A549/TR. The data set can be described thus: Synergistic antiproliferative activity against human A549/Taxol cells assessed as combination index at 20 uM in presence of 0.5 uM paclitaxel by Chou-Talalay method. In kind it is functional.
The nature of data set [2]: Metabolic stability in liver microsome (unknown origin) assessed as intrinsic clearance at 0.5 mg/mL measured up to 60 mins by LC-MS/MS analysis. In kind it is ADME. The following applies: liver microsomes, read-out: CLH. For orientation: Microsomes from liver hold many membrane-bound enzymes, among them those of drug oxidation.
Data set [3] concerns A549/TR. The experiment in a line: Synergistic antiproliferative activity against human A549/Taxol cells assessed as combination index at 10 uM in presence of 0.5 uM paclitaxel by Chou-Talalay method. In kind it is functional.
Data set [4] is described as follows: Half life in male Sprague-Dawley rat at 2 mg/kg, iv measured up to 24 hrs by LC-MS/MS analysis. In kind it is ADME, organism-based. Conditions: in vivo.
The target of data set [5] is T1, Cytochrome P450 2C8 (Homo sapiens, UniProt P10632).
T1 sequence (P10632 whole entry): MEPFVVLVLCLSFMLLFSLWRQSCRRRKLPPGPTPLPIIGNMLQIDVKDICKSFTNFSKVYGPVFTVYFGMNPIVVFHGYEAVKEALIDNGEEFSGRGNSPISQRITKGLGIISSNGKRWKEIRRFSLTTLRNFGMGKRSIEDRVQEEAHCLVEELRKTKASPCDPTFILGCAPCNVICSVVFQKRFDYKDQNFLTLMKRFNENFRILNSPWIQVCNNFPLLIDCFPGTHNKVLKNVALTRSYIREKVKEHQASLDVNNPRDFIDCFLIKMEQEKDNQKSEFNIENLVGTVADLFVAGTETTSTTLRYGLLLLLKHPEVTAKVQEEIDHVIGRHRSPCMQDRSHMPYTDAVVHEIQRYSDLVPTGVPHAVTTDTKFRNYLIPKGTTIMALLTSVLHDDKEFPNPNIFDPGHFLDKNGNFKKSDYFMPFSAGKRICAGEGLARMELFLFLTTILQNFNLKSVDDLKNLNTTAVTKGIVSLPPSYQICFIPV
The experiment in a line: Inhibition of CYP2C8 in human liver microsome pre-incubated with compound for 5 mins followed NADPH addition and measured after 5 mins by LC-MS/MS analysis. The data set is classed as ADME, microsomes.

Data set [6] concerns the target Cytochrome P450 2C19 (Homo sapiens, UniProt P33261). The experiment in a line: Inhibition of CYP2C19 in human liver microsome pre-incubated with compound for 5 mins followed NADPH addition and measured after 30 mins by LC-MS/MS analysis. In kind it is ADME, microsomes.
Data set [7] deals with Cytochrome P450 2D6 (Homo sapiens, UniProt P10635). The data set can be described thus: Inhibition of CYP2D6 in human liver microsome pre-incubated with compound for 5 mins followed NADPH addition and measured after 10 mins by LC-MS/MS analysis. The data set is classed as ADME, microsomes.
Chain of Cytochrome P450 2D6 (P10635 whole entry): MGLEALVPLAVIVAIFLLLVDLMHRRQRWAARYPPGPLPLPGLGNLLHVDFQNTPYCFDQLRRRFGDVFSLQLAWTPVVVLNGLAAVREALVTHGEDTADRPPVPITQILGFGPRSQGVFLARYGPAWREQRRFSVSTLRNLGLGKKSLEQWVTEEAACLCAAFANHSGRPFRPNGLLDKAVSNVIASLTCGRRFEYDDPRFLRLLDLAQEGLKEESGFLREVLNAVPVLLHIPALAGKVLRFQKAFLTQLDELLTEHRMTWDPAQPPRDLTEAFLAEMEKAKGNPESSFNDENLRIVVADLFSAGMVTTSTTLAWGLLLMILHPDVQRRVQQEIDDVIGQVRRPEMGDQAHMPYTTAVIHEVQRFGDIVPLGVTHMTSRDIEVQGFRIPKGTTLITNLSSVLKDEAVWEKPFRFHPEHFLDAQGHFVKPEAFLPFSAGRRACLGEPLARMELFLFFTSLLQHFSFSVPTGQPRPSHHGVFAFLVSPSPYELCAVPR
The nature of data set [8]: Metabolic stability in liver microsomes (unknown origin) assessed as half life at 0.5 mg/ml measured up to 60 mins by LC-MS/MS analysis. The data set is classed as ADME, Microsome.
In data set [9] the target is Cytochrome P450 2C9 (Homo sapiens, UniProt P11712). The data set can be described thus: Inhibition of CYP2C9 in human liver microsome pre-incubated with compound for 5 mins followed NADPH addition and measured after 10 mins by LC-MS/MS analysis. In kind it is ADME, microsomes.
Chain of Cytochrome P450 2C9 (P11712 whole entry): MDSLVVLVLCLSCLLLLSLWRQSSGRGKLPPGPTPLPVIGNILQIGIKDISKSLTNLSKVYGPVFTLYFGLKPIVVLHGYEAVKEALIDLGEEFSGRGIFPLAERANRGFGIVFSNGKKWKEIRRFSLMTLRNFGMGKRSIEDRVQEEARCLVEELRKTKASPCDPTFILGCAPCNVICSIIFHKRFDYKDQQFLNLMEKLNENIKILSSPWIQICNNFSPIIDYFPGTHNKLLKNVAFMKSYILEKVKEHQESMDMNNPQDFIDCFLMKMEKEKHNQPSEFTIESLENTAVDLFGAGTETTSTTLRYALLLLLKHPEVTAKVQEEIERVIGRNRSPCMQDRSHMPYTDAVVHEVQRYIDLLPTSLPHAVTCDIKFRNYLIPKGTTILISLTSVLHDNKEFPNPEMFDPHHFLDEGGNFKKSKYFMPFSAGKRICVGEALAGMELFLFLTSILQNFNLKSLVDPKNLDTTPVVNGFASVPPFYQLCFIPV
For data set [10], the target named is T2, Cytochrome P450 1B1 (Homo sapiens, UniProt Q16678).
T2 sequence (Q16678 whole entry): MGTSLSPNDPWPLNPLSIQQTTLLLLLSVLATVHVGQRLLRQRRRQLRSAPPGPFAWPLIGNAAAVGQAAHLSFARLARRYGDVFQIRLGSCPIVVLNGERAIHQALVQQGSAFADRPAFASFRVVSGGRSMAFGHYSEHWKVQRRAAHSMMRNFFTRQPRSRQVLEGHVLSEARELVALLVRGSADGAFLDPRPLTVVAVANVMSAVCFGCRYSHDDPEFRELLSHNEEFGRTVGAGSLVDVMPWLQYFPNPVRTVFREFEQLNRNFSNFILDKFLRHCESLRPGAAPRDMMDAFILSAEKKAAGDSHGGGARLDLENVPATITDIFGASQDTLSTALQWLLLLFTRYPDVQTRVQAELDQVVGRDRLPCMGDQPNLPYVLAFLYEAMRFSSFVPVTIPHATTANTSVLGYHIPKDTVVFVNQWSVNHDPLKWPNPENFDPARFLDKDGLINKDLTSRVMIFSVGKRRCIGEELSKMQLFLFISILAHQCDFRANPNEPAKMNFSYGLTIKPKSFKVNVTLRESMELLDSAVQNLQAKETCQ
The data set can be described thus: Inhibition of human recombinant CYP1B1 using 7-ethoxyresorufin as substrate incubated under dark condition for 30 mins in presence of NADPH by EROD fluorescence assay. The data set is classed as ADME.

For data set [11], the system named is A549/TR. The experiment in a line: Synergistic antiproliferative activity against human A549/Taxol cells assessed as combination index at 10 uM in presence of 0.05 uM paclitaxel by Chou-Talalay method. In kind it is functional.
The nature of data set [12]: Cmax in male Sprague-Dawley rat at 10 mg/kg, po measured up to 24 hrs by LC-MS/MS analysis. The following applies: in vivo. In kind it is ADME, organism-based.
The test system of data set [13] is A549/TR. The experiment in a line: Synergistic antiproliferative activity against human A549/Taxol cells assessed as combination index at 5 uM in presence of 0.1uM paclitaxel by Chou-Talalay method. The data set is classed as functional.
A short description of data set [14]: Clearance in male Sprague-Dawley rat at 2 mg/kg, iv measured up to 24 hrs by LC-MS/MS analysis. In kind it is ADME, organism-based. Conditions: in vivo.
The nature of data set [15]: MRT (0 to t) in male Sprague-Dawley rat at 10 mg/kg, po measured up to 24 hrs by LC-MS/MS analysis. In kind it is ADME, organism-based. Conditions: in vivo.
A short description of data set [16]: MRT (0 to t) in male Sprague-Dawley rat at 2 mg/kg, iv measured up to 24 hrs by LC-MS/MS analysis. Conditions: in vivo. The data set is classed as ADME, organism-based.
Data set [17] in a line: AUC (0 to t) in male Sprague-Dawley rat at 2 mg/kg, iv measured up to 24 hrs by LC-MS/MS analysis. In kind it is ADME, organism-based. The following applies: in vivo.
Data set [18] deals with T3, Cytochrome P450 1A1 (Homo sapiens, UniProt P04798).
T3 sequence (P04798 whole entry): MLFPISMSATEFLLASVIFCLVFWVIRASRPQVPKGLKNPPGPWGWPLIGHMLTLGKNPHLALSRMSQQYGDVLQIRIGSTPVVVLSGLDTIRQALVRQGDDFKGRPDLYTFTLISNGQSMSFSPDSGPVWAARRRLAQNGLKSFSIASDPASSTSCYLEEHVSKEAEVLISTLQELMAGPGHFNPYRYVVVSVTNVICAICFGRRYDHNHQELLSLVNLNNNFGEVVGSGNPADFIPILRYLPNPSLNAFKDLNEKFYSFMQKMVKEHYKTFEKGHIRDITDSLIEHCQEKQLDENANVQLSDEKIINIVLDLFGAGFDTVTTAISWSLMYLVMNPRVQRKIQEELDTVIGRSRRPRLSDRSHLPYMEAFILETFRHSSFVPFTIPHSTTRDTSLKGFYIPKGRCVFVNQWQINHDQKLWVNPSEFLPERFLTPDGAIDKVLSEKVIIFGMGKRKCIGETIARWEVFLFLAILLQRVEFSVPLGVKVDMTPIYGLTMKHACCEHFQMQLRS
The data set can be described thus: Inhibition of human recombinant CYP1A1 using 7-ethoxyresorufin as substrate incubated under dark condition for 15 mins in presence of NADPH by EROD fluorescence assay. In kind it is ADME.

Data set [19] can be described thus: AUC (0 to t) in male Sprague-Dawley rat at 10 mg/kg, po measured up to 24 hrs by LC-MS/MS analysis. The data set is classed as ADME, organism-based. Conditions: in vivo.

Chain of Cytochrome P450 2C19 (P33261 whole entry): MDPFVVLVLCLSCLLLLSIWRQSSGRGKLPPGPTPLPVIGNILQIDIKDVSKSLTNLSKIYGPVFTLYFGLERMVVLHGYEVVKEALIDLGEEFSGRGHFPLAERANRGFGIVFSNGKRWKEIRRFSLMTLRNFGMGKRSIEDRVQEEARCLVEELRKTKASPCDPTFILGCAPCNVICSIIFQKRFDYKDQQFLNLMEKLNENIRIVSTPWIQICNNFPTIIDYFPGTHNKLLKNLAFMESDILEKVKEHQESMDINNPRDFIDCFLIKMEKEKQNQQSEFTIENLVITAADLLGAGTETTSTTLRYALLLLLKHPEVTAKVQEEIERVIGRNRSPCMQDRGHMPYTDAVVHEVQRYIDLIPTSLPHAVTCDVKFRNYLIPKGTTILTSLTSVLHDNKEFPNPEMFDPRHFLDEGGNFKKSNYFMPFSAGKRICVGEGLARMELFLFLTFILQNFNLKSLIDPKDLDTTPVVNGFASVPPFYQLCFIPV

A word on the half-life: it is the time in which the quantity being followed falls by half. By IC50 is commonly meant the concentration at which inhibition is half-maximal. A word on the Cmax: it is the maximum level reached in the sampled fluid or tissue. By clearance is commonly meant the rate of elimination divided by the concentration. A lower clearance goes with inefficient removal. As a reminder, the MRT last is the average time that molecules of a dose stay in the body. What is called AUC(0-t) is exposure summed from dosing to a finite time, without extrapolation to infinity. Lower therefore signals low exposure. In the case of `O=C(Nc1cc(Cl)cc(Cl)c1)c1nc(-c2cccc(Cl)c2)cs1`, the CI in data set [1] is given as 2.15; in data set [3], 1.14; in [11] it was 0.2; in data set [13], 0.15. Besides, the CLint scaled in [2] worked out at 1.1 mL/min/kg. Moreover, the half-life is 3.78 h in data set [4] and more than 1 h in [8]. In addition, the IC50 in data set [5] was more than 10 µM; in data set [6] it was more than 10 µM; in data set [7], more than 10 µM; in data set [9] it was more than 10 µM; in data set [10], 1.48 nM; in data set [18] it was more than 100 µM. The Cmax in data set [12] was 81 ng/mL. The compound also showed a clearance in data set [14] of 14.7 mL/min/kg. Further, the MRT last at 24 h in data set [15] came out at 2.32 h; in data set [16] it was 0.64 h. Further, the AUC(0-t) at 24 h in [17] came out at 2290 ng·h/mL; in data set [19], 236 ng·h/mL.
For the compound `N#Cc1ccc(-c2csc(C(=O)Nc3ccc(C(F)(F)F)cc3)n2)cc1`, the CLint scaled in [2] is 17.8 mL/min/kg. Also, the IC50 in data set [5] is more than 10 µM; in data set [6] it was 6.45 µM; in data set [7], more than 10 µM; in data set [9], more than 10 µM; in data set [10], 0.05 nM; in [18], 0.0773 µM. Besides, in data set [8], the half-life amounted to 1.17 h.
For `N#Cc1ccc(-c2csc(C(=O)Nc3cc(Cl)cc(Cl)c3)n2)cc1`, in data set [8], the half-life was more than 1 h. Besides, the IC50 was 1.77 nM in data set [10] and more than 100 µM in data set [18].

Values taken from ChEMBL document CHEMBL6182948 (J Med Chem, 2025).
